According to US20240415914A1, “Water Dispersible Cannabinoid Compositions” (priority 2021, published 2024):
Where two headings read alike, the source gives them in different places.

Key:
[1] = format: physicochemical; conditions: stored at room temperature (21-25° C.)
Protocol: At each time period, 0.05 g of powder was dissolved in 10 ml-15 of ethanol, diluted to fall within the analytical range, and injected into the LCMSMS for analysis.

[2] = Stability of cannabinoid and Vitamin E components of Beverage 2 (AB Red) stored at 8° C. and 21-25° C., LCMSMS over 570 days
Protocol: The LCMSMS was calibrated for 0-50 ng/ml cannabinoids with the same resin material used in the preparation of the concentrates. At each time period, 100 μml of beverage was diluted with 10 ml of methanol and injected into the LCMSMS for analysis.

CCCCCc1cc(O)c2c(c1)OC(C)(C)c1ccc(C)cc1-2 [CBN, cannabinol]
Stability in Powder Concentrate (content by LCMSMS) ([1]; day 0): 0.480 mg/g powder
Stability in Powder Concentrate (content by LCMSMS) ([1]; day 1): 0.471 mg/g powder
Stability in Powder Concentrate (content by LCMSMS) ([1]; day 2): 0.488 mg/g powder
Stability in Powder Concentrate (content by LCMSMS) ([1]; day 3): 0.474 mg/g powder
Stability in Powder Concentrate (content by LCMSMS) ([1]; day 5): 0.491 mg/g powder
Stability in Powder Concentrate (content by LCMSMS) ([1]; day 8): 0.469 mg/g powder
Stability in Powder Concentrate (content by LCMSMS) ([1]; day 9): 0.466 mg/g powder
Stability in Powder Concentrate (content by LCMSMS) ([1]; day 10): 0.499 mg/g powder
Stability in Powder Concentrate (content by LCMSMS) ([1]; day 11): 0.494 mg/g powder
Stability in Powder Concentrate (content by LCMSMS) ([1]; day 12): 0.496 mg/g powder
Stability in Powder Concentrate (content by LCMSMS) ([1]; day 15): 0.472 mg/g powder
Stability in Powder Concentrate (content by LCMSMS) ([1]; day 16): 0.483 mg/g powder
Stability in Powder Concentrate (content by LCMSMS) ([1]; day 17): 0.465 mg/g powder
Stability in Powder Concentrate (content by LCMSMS) ([1]; day 18): 0.470 mg/g powder
Stability in Powder Concentrate (content by LCMSMS) ([1]; day 19): 0.490 mg/g powder
Stability in Powder Concentrate (content by LCMSMS) ([1]; day 22): 0.486 mg/g powder
Stability in Powder Concentrate (content by LCMSMS) ([1]; day 23): 0.469 mg/g powder
Stability in Powder Concentrate (content by LCMSMS) ([1]; day 24): 0.465 mg/g powder
Stability in Powder Concentrate (content by LCMSMS) ([1]; day 25): 0.486 mg/g powder
Stability in Powder Concentrate (content by LCMSMS) ([1]; day 26): 0.486 mg/g powder
Stability in Powder Concentrate (content by LCMSMS) ([1]; day 29): 0.484 mg/g powder
Stability in Powder Concentrate (content by LCMSMS) ([1]; day 30): 0.476 mg/g powder
Stability in Powder Concentrate (content by LCMSMS) ([1]; day 60): 0.489 mg/g powder
Stability in Powder Concentrate (content by LCMSMS) ([1]; day 90): 0.483 mg/g powder
Stability in Powder Concentrate (content by LCMSMS) ([1]; day 120): 0.498 mg/g powder
Stability in Powder Concentrate (content by LCMSMS) ([1]; day 150): 0.500 mg/g powder
Stability in Powder Concentrate (content by LCMSMS) ([1]; day 180): 0.464 mg/g powder
Stability in Powder Concentrate (content by LCMSMS) ([1]; day 210): 0.501 mg/g powder
Stability in Powder Concentrate (content by LCMSMS) ([1]; day 240): 0.467 mg/g powder
Stability in Powder Concentrate (content by LCMSMS) ([1]; day 270): 0.464 mg/g powder
Stability in Powder Concentrate (content by LCMSMS) ([1]; day 300): 0.469 mg/g powder
Stability in Powder Concentrate (content by LCMSMS) ([1]; day 330): 0.502 mg/g powder
Stability in Powder Concentrate (content by LCMSMS) ([1]; day 360): 0.499 mg/g powder
Stability in Powder Concentrate (content by LCMSMS) ([1]; day 390): 0.479 mg/g powder
Stability in Powder Concentrate (content by LCMSMS) ([1]; day 420): 0.481 mg/g powder
Stability in Powder Concentrate (content by LCMSMS) ([1]; day 450): 0.480 mg/g powder
Stability in Powder Concentrate (content by LCMSMS) ([1]; day 480): 0.485 mg/g powder
Stability in Powder Concentrate (content by LCMSMS) ([1]; day 510): 0.499 mg/g powder
Stability in Powder Concentrate (content by LCMSMS) ([1]; day 540): 0.492 mg/g powder
Stability in Powder Concentrate (content by LCMSMS) ([1]; day 570): 0.471 mg/g powder
Stability of Cannabinoids in AB Red ([2]; 8° C., 0 days): 2.81 µg/mL
Stability of Cannabinoids in AB Red ([2]; 8° C., 1 days): 2.82 µg/mL
Stability of Cannabinoids in AB Red ([2]; 8° C., 2 days): 2.74 µg/mL
Stability of Cannabinoids in AB Red ([2]; 8° C., 3 days): 2.83 µg/mL
Stability of Cannabinoids in AB Red ([2]; 8° C., 5 days): 2.78 µg/mL
Stability of Cannabinoids in AB Red ([2]; 8° C., 8 days): 2.80 µg/mL
Stability of Cannabinoids in AB Red ([2]; 8° C., 9 days): 2.74 µg/mL
Stability of Cannabinoids in AB Red ([2]; 8° C., 10 days): 2.79 µg/mL
Stability of Cannabinoids in AB Red ([2]; 8° C., 11 days): 2.73 µg/mL
Stability of Cannabinoids in AB Red ([2]; 8° C., 12 days): 2.76 µg/mL
Stability of Cannabinoids in AB Red ([2]; 8° C., 15 days): 2.77 µg/mL
Stability of Cannabinoids in AB Red ([2]; 8° C., 16 days): 2.83 µg/mL
Stability of Cannabinoids in AB Red ([2]; 8° C., 17 days): 2.80 µg/mL
Stability of Cannabinoids in AB Red ([2]; 8° C., 18 days): 2.78 µg/mL
Stability of Cannabinoids in AB Red ([2]; 8° C., 19 days): 2.78 µg/mL
Stability of Cannabinoids in AB Red ([2]; 8° C., 22 days): 2.73 µg/mL
Stability of Cannabinoids in AB Red ([2]; 8° C., 23 days): 2.79 µg/mL
Stability of Cannabinoids in AB Red ([2]; 8° C., 24 days): 2.76 µg/mL
Stability of Cannabinoids in AB Red ([2]; 8° C., 25 days): 2.83 µg/mL
Stability of Cannabinoids in AB Red ([2]; 8° C., 26 days): 2.79 µg/mL
Stability of Cannabinoids in AB Red ([2]; 8° C., 29 days): 2.77 µg/mL
Stability of Cannabinoids in AB Red ([2]; 8° C., 30 days): 2.77 µg/mL
Stability of Cannabinoids in AB Red ([2]; 8° C., 60 days): 2.73 µg/mL
Stability of Cannabinoids in AB Red ([2]; 8° C., 90 days): 2.80 µg/mL
Stability of Cannabinoids in AB Red ([2]; 8° C., 120 days): 2.69 µg/mL
Stability of Cannabinoids in AB Red ([2]; 8° C., 150 days): 2.69 µg/mL
Stability of Cannabinoids in AB Red ([2]; 8° C., 180 days): 2.74 µg/mL
Stability of Cannabinoids in AB Red ([2]; 8° C., 210 days): 2.69 µg/mL
Stability of Cannabinoids in AB Red ([2]; 8° C., 240 days): 2.74 µg/mL
Stability of Cannabinoids in AB Red ([2]; 8° C., 270 days): 2.76 µg/mL
Stability of Cannabinoids in AB Red ([2]; 8° C., 300 days): 2.75 µg/mL
Stability of Cannabinoids in AB Red ([2]; 8° C., 330 days): 2.71 µg/mL
Stability of Cannabinoids in AB Red ([2]; 8° C., 390 days): 2.72 µg/mL
Stability of Cannabinoids in AB Red ([2]; 8° C., 420 days): 2.69 µg/mL
Stability of Cannabinoids in AB Red ([2]; 8° C., 450 days): 2.71 µg/mL
Stability of Cannabinoids in AB Red ([2]; 8° C., 480 days): 2.66 µg/mL
Stability of Cannabinoids in AB Red ([2]; 8° C., 510 days): 2.62 µg/mL
Stability of Cannabinoids in AB Red ([2]; 8° C., 540 days): 2.60 µg/mL
Stability of Cannabinoids in AB Red ([2]; 8° C., 570 days): 2.58 µg/mL
Stability of Cannabinoids in AB Red ([2]; 21-25° C., 0 days): 2.81 µg/mL
Stability of Cannabinoids in AB Red ([2]; 21-25° C., 1 days): 2.73 µg/mL
Stability of Cannabinoids in AB Red ([2]; 21-25° C., 2 days): 2.83 µg/mL
Stability of Cannabinoids in AB Red ([2]; 21-25° C., 3 days): 2.78 µg/mL
Stability of Cannabinoids in AB Red ([2]; 21-25° C., 5 days): 2.71 µg/mL
Stability of Cannabinoids in AB Red ([2]; 21-25° C., 8 days): 2.74 µg/mL
Stability of Cannabinoids in AB Red ([2]; 21-25° C., 9 days): 2.72 µg/mL
Stability of Cannabinoids in AB Red ([2]; 21-25° C., 10 days): 2.73 µg/mL
Stability of Cannabinoids in AB Red ([2]; 21-25° C., 11 days): 2.83 µg/mL
Stability of Cannabinoids in AB Red ([2]; 21-25° C., 12 days): 2.70 µg/mL
Stability of Cannabinoids in AB Red ([2]; 21-25° C., 15 days): 2.77 µg/mL
Stability of Cannabinoids in AB Red ([2]; 21-25° C., 16 days): 2.81 µg/mL
Stability of Cannabinoids in AB Red ([2]; 21-25° C., 17 days): 2.74 µg/mL
Stability of Cannabinoids in AB Red ([2]; 21-25° C., 18 days): 2.80 µg/mL
Stability of Cannabinoids in AB Red ([2]; 21-25° C., 19 days): 2.70 µg/mL
Stability of Cannabinoids in AB Red ([2]; 21-25° C., 22 days): 2.70 µg/mL
Stability of Cannabinoids in AB Red ([2]; 21-25° C., 23 days): 2.82 µg/mL
Stability of Cannabinoids in AB Red ([2]; 21-25° C., 24 days): 2.78 µg/mL
Stability of Cannabinoids in AB Red ([2]; 21-25° C., 25 days): 2.84 µg/mL
Stability of Cannabinoids in AB Red ([2]; 21-25° C., 26 days): 2.70 µg/mL
Stability of Cannabinoids in AB Red ([2]; 21-25° C., 29 days): 2.78 µg/mL
Stability of Cannabinoids in AB Red ([2]; 21-25° C., 30 days): 2.77 µg/mL
Stability of Cannabinoids in AB Red ([2]; 21-25° C., 60 days): 2.78 µg/mL
Stability of Cannabinoids in AB Red ([2]; 21-25° C., 90 days): 2.75 µg/mL
Stability of Cannabinoids in AB Red ([2]; 21-25° C., 120 days): 2.77 µg/mL
Stability of Cannabinoids in AB Red ([2]; 21-25° C., 150 days): 2.75 µg/mL
Stability of Cannabinoids in AB Red ([2]; 21-25° C., 180 days): 2.70 µg/mL
Stability of Cannabinoids in AB Red ([2]; 21-25° C., 210 days): 2.70 µg/mL
Stability of Cannabinoids in AB Red ([2]; 21-25° C., 240 days): 2.73 µg/mL
Stability of Cannabinoids in AB Red ([2]; 21-25° C., 270 days): 2.73 µg/mL
Stability of Cannabinoids in AB Red ([2]; 21-25° C., 300 days): 2.70 µg/mL
Stability of Cannabinoids in AB Red ([2]; 21-25° C., 330 days): 2.75 µg/mL
Stability of Cannabinoids in AB Red ([2]; 21-25° C., 390 days): 2.65 µg/mL
Stability of Cannabinoids in AB Red ([2]; 21-25° C., 420 days): 2.64 µg/mL
Stability of Cannabinoids in AB Red ([2]; 21-25° C., 450 days): 2.68 µg/mL
Stability of Cannabinoids in AB Red ([2]; 21-25° C., 480 days): 2.58 µg/mL
Stability of Cannabinoids in AB Red ([2]; 21-25° C., 510 days): 2.66 µg/mL
Stability of Cannabinoids in AB Red ([2]; 21-25° C., 540 days): 2.65 µg/mL
Stability of Cannabinoids in AB Red ([2]; 21-25° C., 570 days): 2.58 µg/mL
